Assay results taken from patent publication US20230242544A1, “QUINAZOLINE COMPOUNDS, PREPARATION METHODS AND USES THEREOF” (INVENTISBIO CO., LTD., priority 2020, published 2023).

Assays:
Ba/F3_KRAS^G12D cells = Ba/F3_KRAS^G12D cells (Homo sapiens, UniProt P01116, G12D, cells depend on it); test: Ba/F3 KRAS G12D cell proliferation assay (CellTiter-Glo); format: cell-based; details: treated for 3 days, cell-titer Glo, cell growth inhibition, read-out: BaF3_KRAS^G12D IC50
Experimental: Ba/F3_KRAS^G12D cells (KYinno, China) were generated by transducing Ba/F3 parental cells with the recombinant KRAS^G12D lentivirus and followed by 1 ug/mL of puromycin selection and IL3 depletion. […] Cells were seeded at a density of 5×10^3 per well into 96-well plate and incubated overnight. Serial diluted compounds were added to each well. Cells were treated with the compounds for 3 days, after which cell-titer Glo reagent (Promega #G7572) was used to assess cell proliferation. The luminescence signal was then collected on Tecan Spark plate reader. […] Cell growth inhibition of IC50 is calculated with the equation of Y=Bottom+(Top−Bottom)/(1+10^((Log IC50−X)*Hill Slope))

[1] = target: recombinant human KRAS^G12D protein (Homo sapiens, UniProt P01116, G12D); test: Temperature-dependent Fluorescence (TdF) KRAS G12D protein binding assay; details: 6 μM KRAS^G12D protein, 10 μM compound, Sypro Orange; Kd calculated from the fluorescent shift
Sequence of recombinant human KRAS^G12D protein (P01116 1-188 isoform P01116-2 G12D): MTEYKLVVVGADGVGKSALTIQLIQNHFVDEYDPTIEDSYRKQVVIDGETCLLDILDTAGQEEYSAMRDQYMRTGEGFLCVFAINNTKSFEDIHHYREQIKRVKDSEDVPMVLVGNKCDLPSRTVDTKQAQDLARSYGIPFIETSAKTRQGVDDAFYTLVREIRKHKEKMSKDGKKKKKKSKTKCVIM
Experimental: The Temperature-dependent Fluorescence (TdF) assay was used to analyze binding affinity of compound to recombinant human KRAS^G12D protein. The TdF assay was conducted in the 96-well-based real-time fluorescence plate reader (ABI 7500 or Roche LightCycler 480). Fluorescent dye Sypro Orange (Sigma) was used to monitor the protein folding-unfolding transition. Protein-compound binding was gauged by the shift in the unfolding transition temperature (ΔTm) acquired with and without compound. Each reaction sample consists of 6 μM KRAS^G12D Protein, 10 μM compound, and Sypro Orange dye (in 1% DMSO) in 20 μL reaction buffer (25 mM HEPES pH 7.5, 150 mM NaCl, 10 mM MgCl2). […] Binding affinity (Kd value) was calculated based on the degree of fluorescent shift of the protein with and without compound.

Sequence of Ba/F3_KRAS^G12D cells (P01116 whole entry G12D): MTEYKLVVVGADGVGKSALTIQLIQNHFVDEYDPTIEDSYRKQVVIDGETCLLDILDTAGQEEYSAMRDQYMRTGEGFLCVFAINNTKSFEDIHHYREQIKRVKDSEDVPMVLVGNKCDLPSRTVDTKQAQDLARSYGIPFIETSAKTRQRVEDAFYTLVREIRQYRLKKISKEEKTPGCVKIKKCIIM

SMILES | GI50 (Ba/F3_KRAS^G12D cells) | Kd [1]
CN(C)C1CCN(c2nc(N3CC4CCC(C3)N4)c3cc(Cl)c(-c4cc(O)cc5ccccc45)c(F)c3n2)C1 (centres unmarked) [Compound 52] | 0.5 to 5 µM | > 5 µM
Cc1cc(-c2c(Cl)cc3c(N4CC5CCC(C4)N5)nc(OC[C@@H]4CCCN4C)nc3c2F)cc2[nH]ncc12 [Compound 109] | 0.5 to 5 µM | > 5 µM
Oc1cc(-c2c(Cl)cc3c(N4CC5CCC(C4)N5)nc(OC[C@@]45CCCN4C[C@H](F)C5)nc3c2F)c2c(Cl)c(F)ccc2c1 [Compound 74] | < 0.5 µM | < 0.5 µM
C[C@H]1CNCCN1c1nc(OC[C@@H]2CCCN2C)nc2c(F)c(-c3cc(O)cc4ccccc34)c(Cl)cc12 [Compound 3] | 0.5 to 5 µM | > 5 µM
Cc1cccc2cc(O)cc(-c3c(C#N)cc4c(N5CC6CCC(C5)N6)nc(OC[C@@]56CCCN5C[C@H](F)C6)nc4c3F)c12 [Compound 88] | < 0.5 µM | < 0.5 µM
C#Cc1c(F)ccc2cc(O)cc(-c3c(Cl)cc4c(N5CC6CCC(C5)N6)nc(OC[C@@]56CCCN5C[C@H](F)C6)nc4c3F)c12 [Compound 146] | < 0.5 µM | < 0.5 µM
CN1CC(F)(F)CC1COc1nc(N2CC3CCC(C2)N3)c2cc(Cl)c(-c3cc(O)cc4cccc(Cl)c34)c(F)c2n1 (centres unmarked) [Compound 35] | 0.5 to 5 µM | 0.5 to 5 µM
Oc1cc(-c2c(Cl)cc3c(N4C5CCC4CNC5)nc(OCC45CCCN4CCC5)nc3c2F)c2ccccc2c1 [Compound 33] | 0.5 to 5 µM | < 0.5 µM
Oc1cc(-c2c(Cl)cc3c(N4CCNCC4)nc(OC[C@@]45CCCN4C[C@H](F)C5)nc3c2F)c2ccccc2c1 [Compound 126] | 0.5 to 5 µM | 0.5 to 5 µM
CN(C)CC1CN(c2nc(N3CC4CCC(C3)N4)c3cc(Cl)c(-c4cc(O)cc5ccccc45)c(F)c3n2)C1 [Compound 51] | 0.5 to 5 µM | > 5 µM
CN1CCC[C@H]1COc1nc(N2CC3CCC(C2)N3)c2cc(Cl)c(-c3c(N)cccc3F)c(F)c2n1 [Compound 31] | 0.5 to 5 µM | > 5 µM
CN(C)CC1CCN(c2nc(N3CC4CCC(C3)N4)c3cc(Cl)c(-c4cc(O)cc5ccccc45)c(F)c3n2)CC1 [Compound 53] | 0.5 to 5 µM | > 5 µM
CN1CCN(c2nc(N3CC4CCC(C3)N4)c3cc(Cl)c(-c4cc(O)cc5ccccc45)c(F)c3n2)CC1 [Compound 83] | 0.5 to 5 µM | > 5 µM
Oc1cc(-c2c(Cl)cc3c(N4CCNCC4)nc(OCC45CCCN4CCC5)nc3c2F)c2ccccc2c1 [Compound 29] | 0.5 to 5 µM | > 5 µM
CN1CCC1COc1nc(N2CC3CCC(C2)N3)c2cc(Cl)c(-c3cc(O)cc4ccccc34)c(F)c2n1 (centres unmarked) [Compound 79] | 0.5 to 5 µM | < 0.5 µM
Cc1cccc2cc(O)cc(-c3c(Cl)cc4c(N5CC6CCC(C5)N6)nc(OC[C@@]56CCCN5C[C@H](F)C6)nc4c3F)c12 (single isomer, unassigned) [Compound 117] | < 0.5 µM | < 0.5 µM
Oc1cc(-c2ccc3c(N4CC5CCC(C4)N5)nc(OCC45CCCN4CCC5)nc3c2F)c2c(Cl)cccc2c1 [Compound 82] | > 5 µM | > 5 µM
CNC1CCN(c2nc(OC[C@@H]3CCCN3C)nc3c(F)c(-c4cc(O)cc5cccc(Cl)c45)c(Cl)cc23)C1 (some centres unmarked) [Compound 16] | 0.5 to 5 µM | > 5 µM
N#CC[C@H]1CN(c2nc(OC[C@@]34CCCN3C[C@H](F)C4)nc3c(F)c(-c4cc(O)cc5ccccc45)c(Cl)cc23)CCN1 [Compound 96] | 0.5 to 5 µM | > 5 µM
C#Cc1c(F)ccc2cc(O)cc(-c3c(OC)cc4c(N5CC6CCC(C5)N6)nc(OC[C@@]56CCCN5C[C@H](F)C6)nc4c3F)c12 [Compound 163] | < 0.5 µM | < 0.5 µM
C[C@@H]1CN(c2nc(OC[C@@]34CCCN3C[C@H](F)C4)nc3c(F)c(-c4cc(O)cc5ccccc45)c(Cl)cc23)[C@@H](C)CN1 [Compound 128] | 0.5 to 5 µM | > 5 µM
Oc1ccc2ccccc2c1-c1c(Cl)cc2c(N3CC4CCC(C3)N4)nc(OCC34CCCN3CCC4)nc2c1F [Compound 70] | > 5 µM | 0.5 to 5 µM
